# Experimental data reported in patent US9976141B2, “Compositions and methods for inhibiting gene expression of Hif2alpha” (Arrowhead Madison Inc., priority 2015, dated 2018).
# System: human (tumor) Hif2α (EPAS1) mRNA
# Assay: Hif2α knockdown in orthotopic RCC tumor bearing mice, single injection of RNAi trigger-delivery polymer conjugate, RT-qPCR (Table 7)
# Type: in vivo
# Details: single tail vein injection, relative to isotonic glucose
# Summary of the method: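 Female athymic nude mice carried orthotopic A498-SEAP ccRCC kidney tumours, used 5–6 weeks after implantation. They received one tail-vein injection of RGD-targeted Hif2α RNAi trigger–polymer conjugate or isotonic glucose. Tumour Hif2α mRNA was measured by TaqMan RT-qPCR normalised to CycA (ΔΔCT) and expressed relative to glucose-treated mice.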
# [1] = RNAi trigger 50 μg, polymer 064 125 μg
Substance,Relative Expression day 4 (Hif2α mRNA in kidney tumor) [1],other results
"AD02735 (antisense AUUCAUGAAAUCGUUACGUUG; sense ACGUAACGAUUUCAUGAAUT; Hif2alpha RNAi agent antisense strand; modified_base 2,4,6,8,10,14,16,18 /mod_base = “2′-deoxy-2′-fluoro corresponding nucleoside”; modified_base 1,3,5,7,9,11,12,13,15,17,19,20,21 /mod_base = “2′-O-methyl corresponding nucleoside”; modified_base 2,3,20,21 /mod_base = “5′-phosphorothioate corresponding nucleotide”; Hif2alpha RNAi agent sense strand; modified_base 3,5,7,8,9,13,15,17 /mod_base = “2′-deoxy-2′-fluoro corresponding nucleoside”; modified_base 1,2,4,6,10,11,12,14,16,18,19 /mod_base = “2′-O-methyl corresponding nucleoside”; modified_base 20 /mod_base = “3′-3′-linked nucleotide”; modi)",0.144,–
"AD01522 (antisense TUUCAUGAAAUCGUUACGUTT; sense ACGUAACGAUUUCAUGAAAT; Hif2alpha RNAi agent antisense strand; modified_base 2,4,6,8,10,14,16,18 /mod_base = “2′-deoxy-2′-fluoro corresponding nucleoside”; modified_base 3,5,7,9,11,12,13,15,17,19 /mod_base = “2′-O-methyl corresponding nucleoside”; modified_base 21 /mod_base = “5′-phosphorothioate corresponding nucleotide”; Hif2alpha RNAi agent sense strand; modified_base 1,3,5,7,8,9,11,13,15,17,19 /mod_base = “2′-deoxy-2′-fluoro corresponding nucleoside”; modified_base 2,4,6,10,12,14,16,18 /mod_base = “2′-O-methyl corresponding nucleoside”; modified_base 20 /mod_base = “3′-3′-linked nucleotide”; modified_base 1 /mo)",–,"Relative Expression day 4 (Hif2α mRNA in kidney tumor) (RNAi trigger 115 μg, polymer 100A 375 μg): 0.44"
"AD03189 (antisense UGUAAAACAAUUGUGUACUUUAA; sense AAAGUACACAAUUGUUUUACA; Hif2alpha RNAi agent antisense strand; modified_base 2,4,6,8,10,14,16,18 /mod_base = “2′-deoxy-2′-fluoro corresponding nucleoside”; modified_base 1,3,5,7,9,11,12,13,15,17,19,20,21,22,23 /mod_base = “2′-O-methyl corresponding nucleoside”; modified_base 2,3,22,23 /mod_base = “5′-phosphorothioate corresponding nucleotide”; Hif2alpha RNAi agent sense strand; modified_base 3,5,7,9,10,11,13,15,19 /mod_base = “2′-deoxy-2′-fluoro corresponding nucleoside”; modified_base 1,2,4,6,8,12,14,16,17,18,20 /mod_base = “2′-O-methyl corresponding nucleoside”; modified_base 21 /mod_base = “3′-3′-linked nucleoti)",0.245,–
"AD01886 (antisense UCUAGCAACAAAACCUUAATT; sense UUAAGGUUUUGUUGCUAGAT; Hif2alpha RNAi agent antisense strand; modified_base 2,4,6,8,10,13,14,16,18 /mod_base = “2′-deoxy-2′-fluoro corresponding nucleoside”; modified_base 1,3,5,7,9,11,12,15,17,19 /mod_base = “2′-O-methyl corresponding nucleoside”; modified_base 2,3,21 /mod_base = “5′-phosphorothioate corresponding nucleotide”; Hif2alpha RNAi agent sense strand; modified_base 1,3,5,8,9,11,13,15,17,19 /mod_base = “2′-deoxy-2′-fluoro corresponding nucleoside”; modified_base 2,4,6,7,10,12,14,16,18 /mod_base = “2′-O-methyl corresponding nucleoside”; modified_base 20 /mod_base = “3′-3′-linked nucleotide”; modified_base)",–,"Relative Expression day 4 (Hif2α mRNA in kidney tumor) (RNAi trigger 100 μg, polymer 064 250 μg): 0.292"
"AD03258 (antisense AUUCAUGAAAUCGUUACGUUG; sense ACGUAACGAUUUCAUGAAUT; Hif2alpha RNAi agent antisense strand; modified_base 2,8,10,14 /mod_base = “2′-deoxy-2′-fluoro corresponding nucleoside”; modified_base 1,3,4,5,6,7,9,11,12,13,15,16,17,18,19,20,21 /mod_base = “2′-O-methyl corresponding nucleoside”; modified_base 2,3,20,21 /mod_base = “5′-phosphorothioate corresponding nucleotide”; Hif2alpha RNAi agent sense strand; modified_base 7,8,9 /mod_base = “2′-deoxy-2′-fluoro corresponding nucleoside”; modified_base 1,2,3,4,5,6,10,11,12,13,14,15,16,17,18,19 /mod_base = “2′-O-methyl corresponding nucleoside”; modified_base 20 /mod_base = “3′-3′-linked nucleotide”; modi)",0.137,–
"AD01408 (antisense TUUCAUGAAAUCGUUACGUCGGCUAU; sense UAUAUCGACGUAACGAUUUCAUGAAA; Hif2alpha RNAi agent antisense strand; modified_base 25 modified base = “2′-hydroxy corresponding nucleoside”; modified_base 2,4,6,8,10,12,14,16,18,20 /mod_base = “2′-deoxy-2′-fluoro corresponding nucleoside”; modified_base 3,5,7,11,13,15,17,19,21,22,23,24,26 /mod_base = “2′-O-methyl corresponding nucleoside”; modified_base 9 /mod_base = “2′-3′ seco corresponding nucleotide”; modified_base 2,3,23,; Hif2alpha RNAi agent sense strand; modified_base 2,4 modified base = “2′-hydroxy corresponding nucleoside”; modified_base 6,8,10,12,14,16,18,20,22,24,26 /mod_base = “2′-deoxy-2′-fluoro correspondi)",–,"Relative Expression day 4 (Hif2α mRNA in kidney tumor) (RNAi trigger 150 μg, polymer 100A 300 μg): 0.50"
"AD02859 (antisense UUUCAUGAAAUCGUUACGUUG; sense ACGUAACGAUUUCAUGAAAT; Hif2alpha RNAi agent antisense strand; modified_base 2,4,6,8,14 /mod_base = “2′-deoxy-2′-fluoro corresponding nucleoside”; modified_base 1,3,5,7,9,10,11,12,13,15,16,17,18,19,20,21 /mod_base = “2′-O-methyl corresponding nucleoside”; modified_base 2,3,20,21 /mod_base = “5′-phosphorothioate corresponding nucleotide”; Hif2alpha RNAi agent sense strand; modified_base 7,8,9 /mod_base = “2′-deoxy-2′-fluoro corresponding nucleoside”; modified_base 1,2,3,4,5,6,10,11,12,13,14,15,16,17,18,19 /mod_base = “2′-O-methyl corresponding nucleoside”; modified_base 20 /mod_base = “3′-3′-linked nucleotide”; modi)",0.214,–
